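Protocol summary: plate cells (96-well), add compound at 5 concentrations, incubate 48 h, interpolate endpoints linearly. At the TGI there is no net growth.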
Legend:
Assay in all cases: NCI-60 cell line screen, 48 h
CCRF-CEM leukemia = test system: CCRF-CEM leukemia
UACC-62 melanoma = test system: UACC-62 melanoma
HCT-116 colon = test system: HCT-116 colon
DLD-1 colon = test system: DLD-1 colon
NCI-H460 lung = test system: NCI-H460 lung
XF 498 CNS = test system: XF 498 CNS
OVCAR-4 ovarian = test system: OVCAR-4 ovarian
HOP-92 NSCLC = test system: HOP-92 NSCLC
DMS 273 small cell lung = test system: DMS 273 small cell lung
IGROV1 ovarian = test system: IGROV1 ovarian
SNB-78 CNS = test system: SNB-78 CNS
SF-539 CNS = test system: SF-539 CNS
HOP-62 NSCLC = test system: HOP-62 NSCLC
MALME-3M melanoma = test system: MALME-3M melanoma
M14 melanoma = test system: M14 melanoma
SR leukemia = test system: SR leukemia
TK-10 renal = test system: TK-10 renal
SF-268 CNS = test system: SF-268 CNS
HCT-15 colon = test system: HCT-15 colon
M19-MEL melanoma = test system: M19-MEL melanoma
OVCAR-3 ovarian = test system: OVCAR-3 ovarian
COLO 205 colon = test system: COLO 205 colon
A549 NSCLC = test system: A549 NSCLC
NCI-H23 lung = test system: NCI-H23 lung
ACHN renal = test system: ACHN renal
HOP-18 NSCLC = test system: HOP-18 NSCLC
CAKI-1 renal = test system: CAKI-1 renal
RXF 393 renal = test system: RXF 393 renal
U251 CNS = test system: U251 CNS
UO-31 renal = test system: UO-31 renal
SNB-75 CNS = test system: SNB-75 CNS
SK-MEL-5 melanoma = test system: SK-MEL-5 melanoma
HT29 colon = test system: HT29 colon
KM20L2 colon = test system: KM20L2 colon
LOX IMVI melanoma = test system: LOX IMVI melanoma
A498 renal = test system: A498 renal
SNB-19 CNS = test system: SNB-19 CNS
SK-MEL-28 melanoma = test system: SK-MEL-28 melanoma
HL-60(TB) leukemia = test system: HL-60(TB) leukemia
LXFL 529 NSCLC = test system: LXFL 529 NSCLC
SF-295 CNS = test system: SF-295 CNS
SN12C renal = test system: SN12C renal
KM12 colon = test system: KM12 colon
UACC-257 melanoma = test system: UACC-257 melanoma
786-0 renal = test system: 786-0 renal
EKVX NSCLC = test system: EKVX NSCLC
RPMI-8226 leukemia = test system: RPMI-8226 leukemia
OVCAR-5 ovarian = test system: OVCAR-5 ovarian
NCI-H522 lung = test system: NCI-H522 lung
HCC-2998 colon = test system: HCC-2998 colon
MOLT-4 leukemia = test system: MOLT-4 leukemia
K-562 leukemia = test system: K-562 leukemia
OVCAR-8 ovarian = test system: OVCAR-8 ovarian
SK-OV-3 ovarian = test system: SK-OV-3 ovarian
SK-MEL-2 melanoma = test system: SK-MEL-2 melanoma
DMS 114 small cell lung = test system: DMS 114 small cell lung
NCI-H226 lung = test system: NCI-H226 lung
SW-620 colon = test system: SW-620 colon

Structure (SMILES): CC(C)C(=O)N1C(=O)O[C@@H](c2ccccc2)[C@H]1C
- TGI (CCRF-CEM leukemia): > 100 µM
- TGI (UACC-62 melanoma): > 100 µM
- TGI (HCT-116 colon): > 100 µM
- TGI (DLD-1 colon): > 100 µM
- TGI (NCI-H460 lung): > 100 µM
- TGI (XF 498 CNS): > 100 µM
- TGI (OVCAR-4 ovarian): > 100 µM
- TGI (HOP-92 NSCLC): > 100 µM
- TGI (DMS 273 small cell lung): > 100 µM
- TGI (IGROV1 ovarian): > 100 µM
- TGI (SNB-78 CNS): > 100 µM
- TGI (SF-539 CNS): > 100 µM
- TGI (HOP-62 NSCLC): > 100 µM
- TGI (MALME-3M melanoma): > 100 µM
- TGI (M14 melanoma): > 100 µM
- TGI (SR leukemia): > 100 µM
- TGI (TK-10 renal): > 100 µM
- TGI (SF-268 CNS): > 100 µM
- TGI (HCT-15 colon): > 100 µM
- TGI (M19-MEL melanoma): > 100 µM
- TGI (OVCAR-3 ovarian): > 100 µM
- TGI (COLO 205 colon): > 100 µM
- TGI (A549 NSCLC): > 100 µM
- TGI (NCI-H23 lung): > 100 µM
- TGI (ACHN renal): > 100 µM
- TGI (HOP-18 NSCLC): > 100 µM
- TGI (CAKI-1 renal): 97.9 µM
- TGI (RXF 393 renal): > 100 µM
- TGI (U251 CNS): > 100 µM
- TGI (UO-31 renal): > 100 µM
- TGI (SNB-75 CNS): > 100 µM
- TGI (SK-MEL-5 melanoma): > 100 µM
- TGI (HT29 colon): > 100 µM
- TGI (KM20L2 colon): > 100 µM
- TGI (LOX IMVI melanoma): > 100 µM
- TGI (A498 renal): > 100 µM
- TGI (SNB-19 CNS): > 64.7 µM
- TGI (SK-MEL-28 melanoma): > 100 µM
- TGI (HL-60(TB) leukemia): > 100 µM
- TGI (LXFL 529 NSCLC): > 100 µM
- TGI (SF-295 CNS): > 100 µM
- TGI (SN12C renal): > 100 µM
- TGI (KM12 colon): > 100 µM
- TGI (UACC-257 melanoma): > 100 µM
- TGI (786-0 renal): > 100 µM
- TGI (EKVX NSCLC): > 100 µM
- TGI (RPMI-8226 leukemia): > 100 µM
- TGI (OVCAR-5 ovarian): > 100 µM
- TGI (NCI-H522 lung): > 100 µM
- TGI (HCC-2998 colon): > 100 µM
- TGI (MOLT-4 leukemia): > 100 µM
- TGI (K-562 leukemia): > 100 µM
- TGI (OVCAR-8 ovarian): > 100 µM
- TGI (SK-OV-3 ovarian): > 100 µM
- TGI (SK-MEL-2 melanoma): > 100 µM
- TGI (DMS 114 small cell lung): > 100 µM
- TGI (NCI-H226 lung): > 100 µM
- TGI (SW-620 colon): > 100 µM
